Experiment [1] concerns the target T1, HgPres (naked mole-rat prestin) (Heterocephalus glaber, UniProt A0AAX6NYL9).
T1 construct: gene Slc26a5
T1 sequence (A0AAX6NYL9 1-744): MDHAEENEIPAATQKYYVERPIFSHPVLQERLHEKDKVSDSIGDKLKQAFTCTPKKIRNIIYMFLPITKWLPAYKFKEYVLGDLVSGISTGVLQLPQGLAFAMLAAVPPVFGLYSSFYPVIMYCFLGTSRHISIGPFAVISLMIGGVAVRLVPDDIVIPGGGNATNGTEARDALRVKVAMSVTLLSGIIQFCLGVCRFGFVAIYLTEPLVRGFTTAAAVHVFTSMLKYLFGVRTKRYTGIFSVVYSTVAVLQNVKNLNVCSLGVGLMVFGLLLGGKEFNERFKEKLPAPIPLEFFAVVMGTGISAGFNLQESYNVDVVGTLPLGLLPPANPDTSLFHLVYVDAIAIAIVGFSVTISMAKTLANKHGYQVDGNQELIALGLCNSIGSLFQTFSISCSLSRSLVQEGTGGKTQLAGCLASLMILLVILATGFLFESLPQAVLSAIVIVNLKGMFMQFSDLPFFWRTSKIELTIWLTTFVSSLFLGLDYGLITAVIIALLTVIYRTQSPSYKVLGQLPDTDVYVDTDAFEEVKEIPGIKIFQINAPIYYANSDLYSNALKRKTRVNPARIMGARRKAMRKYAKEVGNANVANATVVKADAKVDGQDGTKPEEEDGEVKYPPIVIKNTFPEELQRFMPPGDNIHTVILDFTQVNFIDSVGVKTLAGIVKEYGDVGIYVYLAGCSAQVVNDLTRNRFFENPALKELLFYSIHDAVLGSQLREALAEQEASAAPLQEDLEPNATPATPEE
As to the kind of experiment: whole-cell nonlinear capacitance (NLC). Conditions: 10 mM salicylate in bath; HEK293T cells; room temperature; pH 7.3. Format: cell-based.

Experiment [2] has as its target T2, hPres (human prestin, SLC26A5) (Homo sapiens, UniProt P58743).
T2 construct: full-length; C-terminal TEV-FLAG-EGFP tag cleaved off; HEK293S GnTI- (BacMam); digitonin micelles
T2 sequence (P58743 1-744): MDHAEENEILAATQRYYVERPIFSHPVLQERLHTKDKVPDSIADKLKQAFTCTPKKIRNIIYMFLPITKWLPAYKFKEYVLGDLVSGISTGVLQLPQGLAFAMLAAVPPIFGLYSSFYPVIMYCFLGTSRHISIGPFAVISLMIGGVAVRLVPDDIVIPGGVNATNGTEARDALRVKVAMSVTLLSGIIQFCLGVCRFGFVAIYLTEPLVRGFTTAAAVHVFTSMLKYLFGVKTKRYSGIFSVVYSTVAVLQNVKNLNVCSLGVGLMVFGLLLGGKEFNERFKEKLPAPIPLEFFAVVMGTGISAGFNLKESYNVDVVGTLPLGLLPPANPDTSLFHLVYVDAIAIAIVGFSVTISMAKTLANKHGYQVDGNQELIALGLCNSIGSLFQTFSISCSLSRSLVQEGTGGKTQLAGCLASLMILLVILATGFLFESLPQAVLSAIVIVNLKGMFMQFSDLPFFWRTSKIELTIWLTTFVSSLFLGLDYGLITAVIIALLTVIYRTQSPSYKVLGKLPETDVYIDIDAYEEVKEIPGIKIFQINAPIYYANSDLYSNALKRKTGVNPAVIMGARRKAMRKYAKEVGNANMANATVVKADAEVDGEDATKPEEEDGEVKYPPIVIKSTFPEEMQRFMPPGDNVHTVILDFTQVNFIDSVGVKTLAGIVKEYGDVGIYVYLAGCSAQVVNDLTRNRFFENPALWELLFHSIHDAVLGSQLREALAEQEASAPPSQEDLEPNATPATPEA
Kind of experiment: isothermal titration calorimetry. Format: binding. (In general: Isothermal titration calorimetry measures the heat released or taken up as one component is titrated into another.)

The structures appear in SMILES notation.

The text below walks through data of article PMC9584906, “Cryo-EM structures of thermostabilized prestin provide mechanistic insights underlying outer hair cell electromotility” (Nature Communications, 2022).

Broadly, the Kd is the free concentration of one partner at which half of the binding sites on the other are occupied at equilibrium, for simple one-to-one binding. A low value points to tighter binding. Take `O=C(O)c1ccccc1O` [salicylate]: in experiment [1], the “effect on NLC at 10 mM” value is “The effect of salicylate on the NLC of WT (left) and S398A-HgPres (right)”. This molecule returned a dissociation constant (Kd) in experiment [2] of 7.08 mM.
